From US4393055A, “Hydroxyalkyl ether derivatives of rutin poly(H-)sulfate and method of use” (American Cyanamid Company, priority 1982, dated 1983)
“And” between values parts separate entries of the source, which are not always exact repeats. Identical values can stand only once. Counter-ions that a name gives are not always drawn.

Tests used:
[1] = system: complement activity of sera; test: Guinea Pig Intraperitoneal Test (GPIP); assay type: in vivo; settings: 200 mg./kg. i.p.
Protocol: An active inhibitor protects C2 from C1 and C4; (ii) Cap 50 Test--Here, appropriate amounts of the test compound are added to a pool of guinea pig serum in vitro, after which the undiluted serum capillary tube assay referred to above is run. The concentration of compound inhibiting 50% is reported; and (iii) Guinea Pig Intraperitoneal Test (GPIP)--Guinea pigs weighing about 300 g. are dosed intraperitoneally (i.p.) with 200 mg./kg. of the test compound dissolved in saline and adjusted to pH 7-8. Approximately 0.4 ml. blood samples, […], are collected directly into centrifuge tubes; 5 ml. blood samples, […] beakers. The samples are allowed to clot, centrifuged, and the resultant sera are assayed for complement activity using the capillary complement assay. Percent inhibition are calculated by comparison with simultaneous controls.

activated human C1 = activated human C1 (Homo sapiens, UniProt P09871); test: Test Code 026 (C1 inhibitor); assay type: biochemical; settings: twofold serial dilutions; higher well number indicates higher activity
Chain of activated human C1 (P09871 16-437 limits assumed): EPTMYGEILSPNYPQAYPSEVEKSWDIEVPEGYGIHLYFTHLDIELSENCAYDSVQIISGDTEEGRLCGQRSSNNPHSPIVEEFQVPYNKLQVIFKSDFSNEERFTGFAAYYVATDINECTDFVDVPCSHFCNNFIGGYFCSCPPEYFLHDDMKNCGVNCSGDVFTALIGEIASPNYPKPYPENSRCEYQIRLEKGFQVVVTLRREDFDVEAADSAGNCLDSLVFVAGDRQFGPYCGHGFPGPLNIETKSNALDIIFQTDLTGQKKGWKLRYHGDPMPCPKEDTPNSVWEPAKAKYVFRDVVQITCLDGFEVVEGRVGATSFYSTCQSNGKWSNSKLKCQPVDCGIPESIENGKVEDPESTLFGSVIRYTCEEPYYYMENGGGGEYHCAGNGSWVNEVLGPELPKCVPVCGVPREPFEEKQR
Chain of activated human C1 (P09871 438-688 limits assumed): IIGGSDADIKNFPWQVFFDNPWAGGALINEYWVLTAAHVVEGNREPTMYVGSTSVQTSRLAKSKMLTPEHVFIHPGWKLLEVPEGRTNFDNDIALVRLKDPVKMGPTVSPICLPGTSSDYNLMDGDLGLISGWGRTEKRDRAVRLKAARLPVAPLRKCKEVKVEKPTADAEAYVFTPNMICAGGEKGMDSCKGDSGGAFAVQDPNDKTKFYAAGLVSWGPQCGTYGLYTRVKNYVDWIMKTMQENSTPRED
Chain of activated human C1 (P00736 18-463 partner limits assumed): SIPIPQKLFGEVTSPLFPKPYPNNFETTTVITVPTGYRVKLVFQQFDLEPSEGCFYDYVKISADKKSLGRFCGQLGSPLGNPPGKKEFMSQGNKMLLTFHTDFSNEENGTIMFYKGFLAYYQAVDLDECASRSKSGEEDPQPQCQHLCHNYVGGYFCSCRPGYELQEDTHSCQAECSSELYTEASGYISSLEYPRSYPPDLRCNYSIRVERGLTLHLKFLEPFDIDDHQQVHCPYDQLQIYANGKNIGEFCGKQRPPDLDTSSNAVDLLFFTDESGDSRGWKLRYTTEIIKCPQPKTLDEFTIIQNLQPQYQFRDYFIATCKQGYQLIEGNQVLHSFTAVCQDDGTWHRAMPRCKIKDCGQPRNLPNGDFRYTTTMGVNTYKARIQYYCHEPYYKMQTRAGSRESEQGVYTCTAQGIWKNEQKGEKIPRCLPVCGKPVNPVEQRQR
Chain of activated human C1 (P00736 464-705 partner limits assumed): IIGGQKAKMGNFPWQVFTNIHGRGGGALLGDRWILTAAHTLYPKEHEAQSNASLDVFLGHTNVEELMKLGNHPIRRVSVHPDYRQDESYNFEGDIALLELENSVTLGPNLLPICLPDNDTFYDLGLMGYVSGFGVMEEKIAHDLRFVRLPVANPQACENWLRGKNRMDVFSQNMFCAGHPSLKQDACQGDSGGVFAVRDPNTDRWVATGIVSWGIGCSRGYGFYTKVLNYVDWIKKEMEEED
Protocol: An active inhibitor protects C2 from C1 and C4; (ii) Cap 50 Test--Here, appropriate amounts of the test compound are added to a pool of guinea pig serum in vitro, after which the undiluted serum capillary tube assay referred to above is run. The concentration of compound inhibiting 50% is reported; and (iii) Guinea Pig Intraperitoneal Test (GPIP)--Guinea pigs weighing about 300 g. are dosed intraperitoneally (i.p.) with 200 mg./kg. of the test compound dissolved in saline and adjusted to pH 7-8. Approximately 0.4 ml. blood samples, taken by orbital sinus puncture 30 minutes and one hour after injections, are collected directly into centrifuge tubes; 5 ml. blood samples, taken by decapitation 2 hours after injection are collected directly into beakers. The samples are allowed to clot, centrifuged, and the resultant sera are assayed for complement activity using the capillary complement assay. Percent inhibition are calculated by comparison with simultaneous controls.

[2] = system: total hemolytic complement activity; settings: in vitro and in vivo; judged by reduction in total hemolytic complement activity; cited from earlier work

In vitro Activity 026 (activity in wells, serial dilution assay) (activated human C1)	Compound	In vivo Activity (Guinea Pig) Intraperitoneal % Inhibition ([1]; Time (hours) 4) [%]	In vivo Activity (Guinea Pig) Intraperitoneal % Inhibition ([1]; Time (hours) 6)	In vivo Activity (Guinea Pig) Intraperitoneal % Inhibition ([1]; Time (hours) 24) [%]	anticomplementary activity on human serum [2]
9-12 wells	C[C@@H]1O[C@@H](OC[C@H]2O[C@@H](Oc3c(-c4ccc(OS(=O)(=O)O)c(OS(=O)(=O)O)c4)oc4cc(OCCOS(=O)(=O)O)cc(O)c4c3=O)[C@H](OS(=O)(=O)O)[C@@H](OS(=O)(=O)O)[C@@H]2OS(=O)(=O)O)[C@H](OS(=O)(=O)O)[C@H](OS(=O)(=O)O)[C@H]1OS(=O)(=O)O [7-(2-hydroxyethyl)rutin, nona(H-sulfate)sodium salt]	86	71%	35	–
7-10 wells	C[C@@H]1O[C@@H](OC[C@H]2O[C@@H](Oc3c(-c4ccc(OCCOS(=O)(=O)O)c(OCCOS(=O)(=O)O)c4)oc4cc(OCCOS(=O)(=O)O)cc(OS(=O)(=O)O)c4c3=O)[C@H](OS(=O)(=O)O)[C@@H](OS(=O)(=O)O)[C@@H]2OS(=O)(=O)O)[C@H](OS(=O)(=O)O)[C@H](OS(=O)(=O)O)[C@H]1OS(=O)(=O)O [3',4',7-Tris(2-hydroxyethyl)rutin, deca(H-sulfate)sodium salt]	–	48% and 82%	–	–
–	pentosanpolysulfoester	–	–	–	has an anticomplementary activity on human serum, both in vitro and in vivo
6-12 wells	C[C@@H]1O[C@@H](OC[C@H]2O[C@@H](Oc3c(-c4ccc(OS(=O)(=O)O)c(OS(=O)(=O)O)c4)oc4cc(OCCOS(=O)(=O)O)cc(OS(=O)(=O)O)c4c3=O)[C@H](OS(=O)(=O)O)[C@@H](OS(=O)(=O)O)[C@@H]2OS(=O)(=O)O)[C@H](OS(=O)(=O)O)[C@H](OS(=O)(=O)O)[C@H]1OS(=O)(=O)O [7-(2-hydroxyethyl)rutin, deca(H-sulfate)sodium salt]	88	71%	20	–
